The target in the experiment is T1, human threonyl-tRNA synthetase (ThrRS) (Homo sapiens, UniProt P26639).
T1 construct: gene TARS1
T1 sequence (P26639 322-723): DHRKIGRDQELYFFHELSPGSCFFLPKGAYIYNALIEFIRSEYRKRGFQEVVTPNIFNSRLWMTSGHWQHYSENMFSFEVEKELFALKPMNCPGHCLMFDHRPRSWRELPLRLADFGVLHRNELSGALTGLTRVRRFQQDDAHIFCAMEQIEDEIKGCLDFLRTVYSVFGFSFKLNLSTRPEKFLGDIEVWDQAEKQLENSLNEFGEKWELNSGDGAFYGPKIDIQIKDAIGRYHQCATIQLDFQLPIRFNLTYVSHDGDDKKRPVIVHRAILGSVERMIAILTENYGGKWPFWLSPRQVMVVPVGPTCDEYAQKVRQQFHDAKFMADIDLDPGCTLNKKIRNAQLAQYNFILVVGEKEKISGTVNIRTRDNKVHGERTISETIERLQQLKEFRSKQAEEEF
As to the kind of experiment: X-ray co-crystal structure ([…] Å); aminoacylation assay Ki. The class given is biochemical.

Regarding `C[C@@H]1C[C@H](C)C[C@H](C)[C@@H](O)CC(=O)O[C@H]([C@@H]2CCC[C@H]2C(=O)O)C/C=C/C=C(/C#N)[C@H](O)[C@@H](C)C1` [BN, Borrelidin], the Ki (commonly a dissociation constant, usually derived from enzyme kinetics or from competition with a known ligand) was roughly 7 nM.
